Results published in ChEMBL document CHEMBL1128777, “Inhibition of metalloproteinase by futoenone derivatives” (Bioorg Med Chem Lett, 1995).

How the values were obtained:
Stromelysin-1 [1] = biological target: T1, Stromelysin-1 (Homo sapiens, UniProt P08254); experiment: (§1) Inhibition of human recombinant matrix metalloprotease-3 (Stromelysin) at 10 uM
Target sequence in this assay (P08254 100-477 limits assumed): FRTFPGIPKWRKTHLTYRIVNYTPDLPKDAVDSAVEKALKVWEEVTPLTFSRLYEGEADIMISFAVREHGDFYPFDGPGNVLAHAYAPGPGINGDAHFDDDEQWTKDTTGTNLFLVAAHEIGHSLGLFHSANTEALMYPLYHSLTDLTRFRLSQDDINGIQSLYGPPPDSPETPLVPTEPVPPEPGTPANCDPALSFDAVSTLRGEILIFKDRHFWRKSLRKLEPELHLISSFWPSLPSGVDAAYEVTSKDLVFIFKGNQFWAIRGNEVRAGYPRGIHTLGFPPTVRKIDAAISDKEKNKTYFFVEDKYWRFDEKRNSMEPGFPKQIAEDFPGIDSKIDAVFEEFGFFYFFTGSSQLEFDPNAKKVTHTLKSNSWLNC

[2] = biological target: Matrix metalloproteinase-9 (Homo sapiens) (UniProt P14780); experiment: Inhibition of human recombinant 92 kDa gelatinase MMP-9 at 10 uM
Chain of Matrix metalloproteinase-9 (Homo sapiens) (P14780 whole entry): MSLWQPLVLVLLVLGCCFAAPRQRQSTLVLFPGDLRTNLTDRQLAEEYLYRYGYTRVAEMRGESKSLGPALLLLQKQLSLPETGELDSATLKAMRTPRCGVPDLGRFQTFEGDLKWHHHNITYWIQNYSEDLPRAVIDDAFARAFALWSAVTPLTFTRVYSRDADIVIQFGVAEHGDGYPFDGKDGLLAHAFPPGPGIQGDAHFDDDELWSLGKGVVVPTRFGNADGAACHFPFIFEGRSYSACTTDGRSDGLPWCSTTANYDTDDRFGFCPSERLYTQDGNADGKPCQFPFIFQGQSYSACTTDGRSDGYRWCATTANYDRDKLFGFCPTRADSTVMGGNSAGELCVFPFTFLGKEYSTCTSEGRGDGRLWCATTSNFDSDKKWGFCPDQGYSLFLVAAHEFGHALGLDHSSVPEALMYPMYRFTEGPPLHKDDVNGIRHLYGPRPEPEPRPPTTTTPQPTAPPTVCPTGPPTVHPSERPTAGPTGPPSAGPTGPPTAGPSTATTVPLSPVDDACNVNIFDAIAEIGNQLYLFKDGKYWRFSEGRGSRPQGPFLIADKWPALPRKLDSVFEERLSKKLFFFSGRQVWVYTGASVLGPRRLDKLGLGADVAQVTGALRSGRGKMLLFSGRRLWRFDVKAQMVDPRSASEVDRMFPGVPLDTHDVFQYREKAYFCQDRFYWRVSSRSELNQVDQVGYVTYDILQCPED

[3] = biological target: T2, Interstitial collagenase (Homo sapiens) (UniProt P03956); experiment: Inhibition of human recombinant interstitial collagenase MMP-1 at 10 uM
T2 sequence (whole entry): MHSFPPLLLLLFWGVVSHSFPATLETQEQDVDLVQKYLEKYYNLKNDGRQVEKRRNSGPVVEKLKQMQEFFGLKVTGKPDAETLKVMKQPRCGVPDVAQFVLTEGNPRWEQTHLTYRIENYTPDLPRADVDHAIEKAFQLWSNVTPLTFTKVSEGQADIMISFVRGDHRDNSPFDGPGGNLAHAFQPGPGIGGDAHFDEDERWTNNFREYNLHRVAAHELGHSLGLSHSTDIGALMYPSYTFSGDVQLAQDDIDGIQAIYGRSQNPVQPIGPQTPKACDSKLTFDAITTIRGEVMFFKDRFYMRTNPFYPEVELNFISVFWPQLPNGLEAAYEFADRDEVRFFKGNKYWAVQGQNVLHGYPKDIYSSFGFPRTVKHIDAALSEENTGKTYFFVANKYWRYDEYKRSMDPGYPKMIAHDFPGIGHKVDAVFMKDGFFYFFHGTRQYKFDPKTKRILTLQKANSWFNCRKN

Stromelysin-1 [4] = biological target: T1, Stromelysin-1; experiment: Inhibition of human recombinant matrix metalloprotease-3 (Stromelysin) at 100 uM
Target sequence in this assay (P08254 whole entry): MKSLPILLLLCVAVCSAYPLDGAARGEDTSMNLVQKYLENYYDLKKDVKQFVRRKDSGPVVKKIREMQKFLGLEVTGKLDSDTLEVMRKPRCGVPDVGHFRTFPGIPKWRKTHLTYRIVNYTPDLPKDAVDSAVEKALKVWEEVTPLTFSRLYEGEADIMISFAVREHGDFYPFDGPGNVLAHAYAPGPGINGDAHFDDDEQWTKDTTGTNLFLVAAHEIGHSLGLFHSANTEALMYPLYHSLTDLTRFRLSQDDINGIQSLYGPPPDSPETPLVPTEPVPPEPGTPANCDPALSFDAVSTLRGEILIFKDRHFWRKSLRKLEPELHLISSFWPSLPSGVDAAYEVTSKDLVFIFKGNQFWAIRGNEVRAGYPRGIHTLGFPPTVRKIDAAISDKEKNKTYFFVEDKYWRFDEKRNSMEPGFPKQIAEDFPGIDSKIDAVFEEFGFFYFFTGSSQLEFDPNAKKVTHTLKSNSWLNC

Stromelysin-1 [5] = biological target: T1, Stromelysin-1; experiment: as §1; remark: listed apart in the source
Target sequence in this assay (P08254 whole entry): as above

Row | SMILES | inhibition (Stromelysin-1 [1]) [%] | inhibition [2] [%] | inhibition [3] [%] | IC50 (Stromelysin-1 [4]) [nM] | IC50 (Stromelysin-1 [5]) [nM]
1 | COC1=C[C@]23C[C@H](C[C@H](c4ccc5c(c4)OCO5)[C@H]2C)OC3=CC1=S | 42 | 0 | 0 |  | 
2 | COC1=C[C@]23C[C@H](C[C@H](c4ccc5c(c4)OCO5)[C@H]2C)OC3=C(Br)C1=O | 38 | 22 | 0 |  | 
3 | COC1=C[C@]23C[C@H](C[C@H](c4ccc5c(c4)OCO5)[C@H]2C)OC3=CC1=O [FUTOENONE] | 35 | 0 | 16 |  | < 1000
4 | COC1=C[C@]23C[C@H](C[C@H](c4cc5c(cc4Br)OCO5)[C@H]2C)OC3=C(Br)C1=O | 38 | 0 | 0 |  | 

Further lines, results first:

Row | inhibition (Stromelysin-1 [1]) [%] | inhibition [2] [%] | inhibition [3] [%] | IC50 (Stromelysin-1 [4]) [nM] | IC50 (Stromelysin-1 [5]) [nM] | SMILES
5 | 36 | 0 | 0 |  |  | C=CCc1c(O)c(OC)cc2c1O[C@@H](C[C@H](c1ccc3c(c1)OCO3)C(C)O)C2 (stereo not given in full)
6 | 100 | 100 | 100 | 28 |  | CNC(=O)[C@H](Cc1c[nH]c2ccccc12)NC(=O)[C@@H](CC(=O)NO)CC(C)C [ILOMASTAT]
7 | 58 | 8 | 23 |  |  | COc1cc2c(cc1SC(C)=O)O[C@@H](C[C@H](c1ccc3c(c1)OCO3)C(C)OC(C)=O)C2 (stereo not given in full)
8 | 98 | 44 | 75 |  | 600 | COc1cc2c(cc1S)O[C@@H](C[C@H](c1ccc3c(c1)OCO3)C(C)O)C2 (stereo not given in full)
9 | 34 | 0 | 0 |  |  | COc1cc2c(cc1O)O[C@@H](C[C@H](c1ccc3c(c1)OCO3)C(C)O)C2 (stereo not given in full)
